The source of these data is patent publication US20240262826A1, “WILD TYPE KIT INHIBITORS” (Blueprint Medicines Corporation, priority 2022, published 2024).

SMILES strings stand for the structures. pIC50: −log10 of the molar value.

This assay concerns the target wild type c-kit (Homo sapiens (Human), UniProt P10721). Nature of the assay: PathScan phospho c-kit (Tyr719) sandwich ELISA in SCF-stimulated M-07e cells (pKIT assay). The class given is cell-based. The note with it: ELISA assay (values not marked *). An excerpt: The ability of compounds of the disclosure (described herein as test compounds) to inhibit autophosphorylation of wild type c-kit was measures using either a PathScan phospho c-kit (Tyr719) sandwich ELISA (CST #7298) or a Phospho c-Kit (Tyr721) Assay Whole Cell Lysate Kit (MSD: 515DPD/catalog number K15119D-2).
For the PathScan phospho c-kit (Tyr719) sandwich ELISA: M-07e cells were resuspended at 2×10^6 cells/mL in phenol red free, serum-free, GM-CSF-free Iscove's Modified Dulbecco's Medium (IMDM) media with 1% Penicillin-Streptomycin. The cells were then dispensed into the wells of a U-bottom, 96-well plate at 50 uL per well using a multichannel pipet. The plate was allowed to incubate at 37° C. in a humidified tissue culture incubator for 4 hours.
After 4 hours of incubation, each well was dosed with 6.25 uL of test compound at a final DMSO concentration of 0.25% for 60 min at 37° C. to generate an 8-point dose concentration series of test compounds in duplicate. Cells were then incubated for 1 hour at 37° C. in a humidified tissue culture incubator. Next, human SCF at 500 ng/mL was added to the appropriate wells at 6.25 uL/well and the plate was shaken at 450 rpm at room temperature for 10 minutes. AlphaLISA 5× Lysis Buffer supplemented with 1× protease and phosphatase inhibitor was then added at 16 uL/well. The plate was sealed with an adherent cover and shaken at 4° C. at 600 rpm for 30 minutes. After this period of lysis, the plate was stored at −80° C.
When the 96-well plate containing M07e lysates was ready to be processed, the plate was brought to room temperature and 40 μl from each well was transferred to the wells of a PathScan Phospho-c-Kit (Tyr719) Sandwich ELISA plate (CST, Catalog #7298). The ELISA plate was sealed with an adherent cover and incubated for 2 hours at 37° C. Next, the wells were washed 4 times with the provided 1× Wash Buffer, and 100 uL/well of reconstituted Detection Antibody was added to each well, the plate sealed with an adherent cover, and incubated at 37° C. for 1 hour. The wash procedure was repeated and 100 uL/well of reconstituted HRP-Linked secondary antibody was added. The plate was sealed with an adherent cover and incubated at 37° C. for 1 hour. The wash procedure was repeated and 100 uL/well of TMB Substrate was added. The plate was incubated for 10 minutes at room temperature or until the positive reaction elicited a blue color in the appropriate wells. 100 uL/well of STOP solution was added and shaken gently for a few seconds a microplate reader or conventional spectrophotometer e.g., a Perkin Elmer Envision multimode plate reader, part #2105-0010.
An IC50 was calculated using a 4-parameter logistic nonlinear regression.
(In general: ELISA stands for enzyme-linked immunosorbent assay.)

Chain of wild type c-kit (P10721 26-976): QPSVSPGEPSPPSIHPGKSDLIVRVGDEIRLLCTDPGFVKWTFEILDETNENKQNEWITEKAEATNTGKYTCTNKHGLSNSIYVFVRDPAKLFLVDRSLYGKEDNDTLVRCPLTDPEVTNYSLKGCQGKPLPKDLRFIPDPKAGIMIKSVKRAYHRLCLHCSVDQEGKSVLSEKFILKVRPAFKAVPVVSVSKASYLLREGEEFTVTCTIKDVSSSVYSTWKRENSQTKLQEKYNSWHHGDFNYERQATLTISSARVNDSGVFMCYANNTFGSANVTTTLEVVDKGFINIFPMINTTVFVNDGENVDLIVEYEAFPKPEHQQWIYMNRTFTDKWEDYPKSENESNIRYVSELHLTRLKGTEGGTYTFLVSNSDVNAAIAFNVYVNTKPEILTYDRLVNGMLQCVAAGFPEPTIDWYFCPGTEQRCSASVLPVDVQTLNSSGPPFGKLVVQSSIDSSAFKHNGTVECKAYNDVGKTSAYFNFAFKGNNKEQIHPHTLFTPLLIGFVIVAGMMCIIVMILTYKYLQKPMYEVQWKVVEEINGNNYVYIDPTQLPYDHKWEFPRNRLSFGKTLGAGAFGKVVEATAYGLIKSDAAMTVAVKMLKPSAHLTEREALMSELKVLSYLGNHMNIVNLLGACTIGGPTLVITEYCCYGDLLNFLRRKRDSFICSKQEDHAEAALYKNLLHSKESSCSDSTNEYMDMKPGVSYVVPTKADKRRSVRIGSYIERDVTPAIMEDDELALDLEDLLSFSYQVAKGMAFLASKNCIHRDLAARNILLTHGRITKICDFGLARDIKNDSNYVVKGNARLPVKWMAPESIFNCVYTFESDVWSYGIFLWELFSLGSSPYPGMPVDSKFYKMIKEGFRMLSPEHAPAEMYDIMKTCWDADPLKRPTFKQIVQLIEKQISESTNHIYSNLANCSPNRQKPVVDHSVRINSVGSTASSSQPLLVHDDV

In turn, `COCCNc1ccn2ncc(C(=O)Nc3cc(-c4nnn(C5CN(C(=O)OC)C5)n4)ccc3F)c2c1` [Example 115, methyl 3-(5-(4-fluoro-3-(5-((2-methoxyethyl)amino)pyrazolo[1,5-a]pyridine-3-carboxamido)phenyl)-2H-tetrazol-2-yl)azetidine-1-carboxylate] showed a pIC50 of 7.91.

`CCn1nnc(-c2cc(NC(=O)c3cnn4ccc(-c5cn(C[C@H](O)COC)nc5C)cc34)c(Cl)cc2F)n1` [Example 282, (S)—N-(2-chloro-5-(2-ethyl-2H-tetrazol-5-yl)-4-fluorophenyl)-5-(1-(2-hydroxy-3-methoxypropyl)-3-methyl-1H-pyrazol-4-yl)pyrazolo[1,5-a]pyridine-3-carboxamide] showed a pIC50 of 9.70.

As to `Cc1ccc(-c2nnn(C3CC3)n2)cc1NC(=O)c1cnn2ccc(-c3cnn([C@@H](C)[C@H](C)O)c3C)cc12` (single isomer, unassigned) [Example 270, N-(5-(2-cyclopropyl-2H-tetrazol-5-yl)-2-methylphenyl)-5-(1-((2S,3S)-3-hydroxybutan-2-yl)-5-methyl-1H-pyrazol-4-yl)pyrazolo[1,5-a]pyridine-3-carboxamide or N-(5-(2-cyclopropyl-2H-tetrazol-5-yl)-2-methylphenyl)-5-(1-((2R,3R)-3-hydroxybutan-2-yl)-5-methyl-1H-pyrazol-4-yl)pyrazolo[1,5-a]pyridine-3-carboxamide], the pIC50 is 9.30.

Compound `COCCNc1ccn2ncc(C(=O)Nc3cc(-c4nnn([C@H]5C[C@H](CO)C5)n4)ccc3C)c2c1` [Example 201, N-(5-(2-((1r,3r)-3-(hydroxymethyl)cyclobutyl)-2H-tetrazol-5-yl)-2-methylphenyl)-5-((2-methoxyethyl)amino)pyrazolo[1,5-a]pyridine-3-carboxamide] gave a pIC50 of 7.81.

Turning to `O=C(Nc1cc(-c2nnn(C3CC(F)(F)C3)n2)ccc1Cl)c1cnn2ccc(N3CCOCC3)cc12` [Example 169, N-(2-chloro-5-(2-(3,3-difluorocyclobutyl)-2H-tetrazol-5-yl)phenyl)-5-morpholinopyrazolo[1,5-a]pyridine-3-carboxamide], the pIC50 was 8.33.

On to `COCCOC[C@@H](O)Cn1cc(-c2ccn3ncc(C(=O)Nc4cc(-c5nnn(C6CC6)n5)c(F)cc4Cl)c3c2)c(C)n1` [Example 285, (S)—N-(2-chloro-5-(2-cyclopropyl-2H-tetrazol-5-yl)-4-fluorophenyl)-5-(1-(2-hydroxy-3-(2-methoxyethoxy)propyl)-3-methyl-1H-pyrazol-4-yl)pyrazolo[1,5-a]pyridine-3-carboxamide], for which the pIC50 is 9.00.

Consider `O=C(Nc1cc(-c2nnn(CC3CC3)n2)ccc1Cl)c1cnn2ccccc12` [Example 15, N-(2-chloro-5-(2-(cyclopropylmethyl)-2H-tetrazol-5-yl)phenyl)pyrazolo[1,5-a]pyridine-3-carboxamide], for which the pIC50 is 8.38.

Consider `CCNc1ccn2ncc(C(=O)Nc3cc(-c4nnn(C5CN(C(=O)OCC)C5)n4)ccc3C)c2c1` [Example 130, ethyl 3-(5-(3-(5-(ethylamino)pyrazolo[1,5-a]pyridine-3-carboxamido)-4-methylphenyl)-2H-tetrazol-2-yl)azetidine-1-carboxylate], for which the pIC50 is 7.46.

`CCn1nnc(-c2cc(NC(=O)c3cnn4ccc(-c5cn(C[C@H](O)COCCOC)nc5C)cc34)c(Cl)cc2F)n1` [Example 283, (S)—N-(2-chloro-5-(2-ethyl-2H-tetrazol-5-yl)-4-fluorophenyl)-5-(1-(2-hydroxy-3-(2-methoxyethoxy)propyl)-3-methyl-1H-pyrazol-4-yl)pyrazolo[1,5-a]pyridine-3-carboxamide] showed a pIC50 of 9.15.

`Cn1nnc(-c2ccc(F)c(NC(=O)c3cnn4ccc(-c5cnn(CC(C)(C)O)c5)cc34)c2)n1` [Example 213, N-(2-fluoro-5-(2-methyl-2H-tetrazol-5-yl)phenyl)-5-(1-(2-hydroxy-2-methylpropyl)-1H-pyrazol-4-yl)pyrazolo[1,5-a]pyridine-3-carboxamide]: the pIC50 was 7.80.

In turn, `Cc1nn(C[C@H](O)CO)c(C)c1-c1ccn2ncc(C(=O)Nc3cc(-c4nnn(C5CC5)n4)ccc3Cl)c2c1` [Example 275, (S)-N-(2-chloro-5-(2-cyclopropyl-2H-tetrazol-5-yl)phenyl)-5-(1-(2,3-dihydroxypropyl)-3,5-dimethyl-1H-pyrazol-4-yl)pyrazolo[1,5-a]pyridine-3-carboxamide] had a negative logarithm of the IC50 (pIC50) of 10.00.

The compound `Cc1ccc(-n2ncc(C3CC(F)(F)C3)n2)cc1NC(=O)c1cnn2ccccc12` [Example 161, N-(5-(4-(3,3-difluorocyclobutyl)-2H-1,2,3-triazol-2-yl)-2-methylphenyl)pyrazolo[1,5-a]pyridine-3-carboxamide] showed a pIC50 of 8.05.

As to `O=C(Nc1cc(-c2nnn(CC3CC(F)(F)C3)n2)ccc1Cl)c1cnn2ccccc12` [Example 19, N-(2-chloro-5-(2-((3,3-difluorocyclobutyl)methyl)-2H-tetrazol-5-yl)phenyl)pyrazolo[1,5-a]pyridine-3-carboxamide], the negative-log IC50 (pIC50) was 8.12.

Regarding `Cc1ccc(-c2nnn(C3CC(F)(F)C3)n2)cc1NC(=O)c1cnn2ccc(N3CC(CO)C3)cc12` [Example 103, N-(5-(2-(3,3-difluorocyclobutyl)-2H-tetrazol-5-yl)-2-methylphenyl)-5-(3-(hydroxymethyl)azetidin-1-yl)pyrazolo[1,5-a]pyridine-3-carboxamide], the pIC50 is 8.62.

In the case of `CCn1nnc(-c2cc(NC(=O)c3cnn4ccc(-c5cn(CC(C)(C)O)nc5C)cc34)c(Cl)cc2F)n1` [Example 265, N-(2-chloro-5-(2-ethyl-2H-tetrazol-5-yl)-4-fluorophenyl)-5-(1-(2-hydroxy-2-methylpropyl)-3-methyl-1H-pyrazol-4-yl)pyrazolo[1,5-a]pyridine-3-carboxamide], the pIC50 was 9.10.

Consider `Cc1cc(Cl)c(-c2nnn(C3CC3)n2)cc1NC(=O)c1cnn2ccc(-c3cnn(CC(C)(C)O)c3)cc12` [Example 226, N-(4-chloro-5-(2-cyclopropyl-2H-tetrazol-5-yl)-2-methylphenyl)-5-(1-(2-hydroxy-2-methylpropyl)-1H-pyrazol-4-yl)pyrazolo[1,5-a]pyridine-3-carboxamide], for which the pIC50 was 9.30.

As to `Cc1ccc(-c2nnn(C3CN(S(=O)(=O)C4CC4)C3)n2)cc1NC(=O)c1cnn2ccccc12` [Example 179, N-(5-(2-(1-(cyclopropylsulfonyl)azetidin-3-yl)-2H-tetrazol-5-yl)-2-methylphenyl)pyrazolo[1,5-a]pyridine-3-carboxamide], the pIC50 is 8.31.

With `Cc1ccc(-c2nnn(C3CC(F)(F)C3)n2)cc1NC(=O)c1cnn2ccc(NCC(F)(F)CO)cc12` [Example 102, 5-((2,2-difluoro-3-hydroxypropyl)amino)-N-(5-(2-(3,3-difluorocyclobutyl)-2H-tetrazol-5-yl)-2-methylphenyl)pyrazolo[1,5-a]pyridine-3-carboxamide], the pIC50 is 8.59.

In turn, `COCCNc1ccn2ncc(C(=O)Nc3cc(-c4nnn(C5CC5)n4)ccc3C)c2c1` [Example 88, N-(5-(2-cyclopropyl-2H-tetrazol-5-yl)-2-methylphenyl)-5-((2-methoxyethyl)amino)pyrazolo[1,5-a]pyridine-3-carboxamide] gave a pIC50 of 8.49.

Compound `Cc1ccc(-c2cnn(C3CC3)n2)cc1NC(=O)c1cnn2ccccc12` [Example 29, N-(5-(2-cyclopropyl-2H-1,2,3-triazol-4-yl)-2-methylphenyl)pyrazolo[1,5-a]pyridine-3-carboxamide] showed a pIC50 of 7.95.

Consider `CC(C)(O)Cn1cc(-c2ccn3ncc(C(=O)Nc4cc(-n5nnc(C6CC6)n5)ccc4Cl)c3c2)cn1` [Example 216, N-(2-chloro-5-(5-cyclopropyl-2H-tetrazol-2-yl)phenyl)-5-(1-(2-hydroxy-2-methylpropyl)-1H-pyrazol-4-yl)pyrazolo[1,5-a]pyridine-3-carboxamide], for which the pIC50 is 8.62.

As for `COC(=O)N1CC(n2nnc(-c3ccc(C)c(NC(=O)c4cnn5ccc(N6CCC[C@@H](O)C6)cc45)c3)n2)C1` [Example 71, methyl (R)-3-(5-(3-(5-(3-hydroxypiperidin-1-yl)pyrazolo[1,5-a]pyridine-3-carboxamido)-4-methylphenyl)-2H-tetrazol-2-yl)azetidine-1-carboxylate], the pIC50 is 7.38.

One may read the pIC50 as −log10 of the IC50, conventionally taken in molar units. High values mean a low IC50, low ones a high IC50.
